Earlier results, collected in patent US20110136913A1, “ASSESSING AND TREATING BREAST CANCER PATIENTS” (priority 2008, published 2011).

System: MCF-7 cell lines that stably over express exogenous HER-2
Settings: MCF-7 cells over expressing HER-2, mouse model

SMILES: CC/C(=C(\c1ccccc1)c1ccc(OCCN(C)C)cc1)c1ccccc1 [tamoxifen]
- Effect on tumor growth: potent agonist on tumor growth
